According to patent publication US11206830B2, “Herbicidal composition comprising glufosinate or a salt thereof and pyroxasulfone” (BASF SE, priority 2008, dated 2021):

Columns and labels:
Format in all cases: in vivo
Avena fatua (AVEFA) = experiment: greenhouse post-emergence herbicidal activity on AVEFA; conditions: 480 h, solo application, 6.25 g ai/ha, read-out: % activity 20 DAT
Description: (§1) For the post-emergence treatment, the test plants were first grown to a height of 3 to 20 cm, depending on the plant habit, and only then treated. Here, the herbicidal compositions were suspended or emulsified in water as distribution medium and sprayed using finely distributing nozzles.
(§2) The respective herbicides B and/or safener were formulated as 10% by weight strength suspension concentrate and introduced to the spray liquor with the amount of solvent system used for applying the active compound. Herbicides A, C and/or safener were used as commercially available formulations and introduced to the spray liquor with the amount of solvent system used for applying the active compound. In the examples, the solvent used was water.
(§3) The test period extended over 21 days. During this time, the plants were tended, and their response to the treatments with active compound was evaluated.
(§4) The evaluation for the damage caused by the chemical compositions was carried out using a scale from 0 to 100%, compared to the untreated control plants. Here, 0 means no damage and 100 means complete destruction of the plants.
(§5) The value E, which is to be expected if the activity of the individual compounds is just additive, was calculated using the method of S. R. Colby (1967) “Calculating synergistic and antagonistic responses of herbicide combinations”, Weeds 15, p. 22 ff. For two component mixtures the value E was calculated by the following formula E=X+Y−(X·Y/100)
(§6) For three component mixtures the value E was calculated by the following formula E=X+Y+Z−(XY+XZ+YZ)/100+(X·YZ/10000) where X=effect in percent using herbicide A at an application rate a; • Y=effect in percent using herbicide B at an application rate b; • Z=effect in percent using herbicide C at an application rate c; • E=expected effect (in %) of A+B at application rates a+b. or • E=expected effect (in %) of A+B+C at application rates a+b+c.
(§7) If the value observed in this manner is higher than the value E calculated according to Colby, a synergistic effect is present.
(§8) Tables 1 to 12 relate to the herbicidal activity of the individual actives and of their combinations in post-emergence application assessed 20 DAT.

[1] = tested on: Chenopodium album (CHEAL); experiment: greenhouse post-emergence herbicidal activity on CHEAL; conditions: solo application; for inhibition at 6.25 g/ha: 6.25 g ai/ha
Description: as §1, §2, §3, §4, §5, §6, §7, §8

[2] = tested on: Digitaria sanguinalis (DIGSA); experiment: greenhouse post-emergence herbicidal activity on DIGSA; conditions: solo application
Description: as §1, §2, §3, §4, §5, §6, §7, §8

Galium aparine (GALAP) = experiment: greenhouse post-emergence herbicidal activity on GALAP; conditions: solo application; for inhibition at 5 g/ha: 5 g ai/ha
Description: as §1, §2, §3, §4, §5, §6, §7, §8

[3] = tested on: Alopecurus myosuroides (ALOMY); experiment: greenhouse post-emergence herbicidal activity on ALOMY; conditions: solo application
Description: as §1, §2, §3, §4, §5, §6, §7, §8

[4] = tested on: Matricaria inermis (MATIN); experiment: greenhouse post-emergence herbicidal activity on MATIN; conditions: solo application
Description: as §1, §2, §3, §4, §5, §6, §7, §8

[5] = tested on: Abutilon theophrasti (ABUTH); experiment: greenhouse post-emergence herbicidal activity on ABUTH; conditions: solo application; for inhibition at 5 g/ha: 5 g ai/ha
Description: as §1, §2, §3, §4, §5, §6, §7, §8

[6] = tested on: Lolium multiflorum (LOLMU); experiment: greenhouse post-emergence herbicidal activity on LOLMU; conditions: solo application; for inhibition at 5 g/ha: 5 g ai/ha
Description: as §1, §2, §3, §4, §5, §6, §7, §8

[7] = tested on: Polygonum convolvulus (POLCO); experiment: greenhouse post-emergence herbicidal activity on POLCO; conditions: solo application
Description: as §1, §2, §3, §4, §5, §6, §7, §8

[8] = tested on: Amaranthus retroflexus (AMARE); experiment: greenhouse post-emergence herbicidal activity on AMARE; conditions: 480 h, solo application, 100 g ai/ha, read-out: % activity 20 DAT
Description: as §1, §2, §3
(§9) The evaluation for the damage caused by the chemical compositions was carried out using a scale from 0 to 100%, compared to the untreated control plants. […]
(§10) The value E, which is to be expected if the activity of the individual compounds is just additive, was calculated using the method of S. R. Colby (1967) “Calculating synergistic and antagonistic responses of herbicide combinations”, Weeds 15, p. […] For two component mixtures the value E was calculated by the following formula E=X+Y−(X·Y/100)
as §6, §7, §8

Setaria viridis (SETVI) = experiment: greenhouse post-emergence herbicidal activity on SETVI; conditions: 480 h, solo application, 100 g ai/ha, read-out: % activity 20 DAT
Description: as §1, §2, §3, §9, §10, §6, §7, §8

[9] = Chenopodium album, 480 h, read-out: % activity 20 DAT
[10] = Digitaria sanguinalis, 480 h, 6.25 g ai/ha, read-out: % activity 20 DAT
[11] = Alopecurus myosuroides, 480 h, 6.25 g ai/ha, read-out: % activity 20 DAT
[12] = Abutilon theophrasti, 480 h, read-out: % activity 20 DAT
[13] = Lolium multiflorum, 480 h, read-out: % activity 20 DAT
[14] = Galium aparine, 480 h, read-out: % activity 20 DAT

Structure (SMILES): C#CCN1C(=O)COc2cc(F)c(N3C(=O)C4=C(CCCC4)C3=O)cc21 [flumioxazin]
- inhibition at 6.25 g/ha (Avena fatua (AVEFA)): 35%
- inhibition at 6.25 g/ha [1, 9]: 0%
- inhibition at 12.5 g/ha ([1]; Chenopodium album, 480 h, 12.5 g ai/ha, read-out: % activity 20 DAT): 30%
- inhibition at 6.25 g/ha [2, 10]: 15%
- inhibition at 6.25 g/ha (Galium aparine (GALAP); Galium aparine, 480 h, 6.25 g ai/ha, read-out: % activity 20 DAT): 30%
- inhibition at 12.5 g/ha (Galium aparine (GALAP); Galium aparine, 480 h, 12.5 g ai/ha, read-out: % activity 20 DAT): 30%
- inhibition at 6.25 g/ha [3, 11]: 20%
- inhibition at 12.5 g/ha ([3]; Alopecurus myosuroides, 480 h, 12.5 g ai/ha, read-out: % activity 20 DAT): 20%
- inhibition at 6.25 g/ha ([4]; Matricaria, 480 h, 6.25 g ai/ha, read-out: % activity 20 DAT): 65%

Structure (SMILES): COCc1cnc(C2=NC(C)(C(C)C)C(=O)N2)c(C(=O)O)c1 (centres unmarked) [imazamox]
- inhibition at 5 g/ha [5, 12]: 50%
- inhibition at 5 g/ha [6, 13]: 40%
- inhibition at 10 g/ha ([6]; Lolium multiflorum, 480 h, 10 g ai/ha, read-out: % activity 20 DAT): 60%
- inhibition at 5 g/ha ([1]; Chenopodium album, 480 h, 5 g ai/ha, read-out: % activity 20 DAT): 15%
- inhibition at 10 g/ha ([1]; Chenopodium album, 480 h, 10 g ai/ha, read-out: % activity 20 DAT): 30%
- inhibition at 10 g/ha ([2]; Digitaria sanguinalis, 480 h, 10 g ai/ha, read-out: % activity 20 DAT): 20%
- inhibition at 5 g/ha (Galium aparine (GALAP); [14]): 20%
- inhibition at 10 g/ha (Galium aparine (GALAP); Galium aparine, 480 h, 10 g ai/ha, read-out: % activity 20 DAT): 30%
- inhibition at 10 g/ha ([3]; Alopecurus myosuroides, 480 h, 10 g ai/ha, read-out: % activity 20 DAT): 30%
- inhibition at 5 g/ha ([4]; Matricaria, 480 h, 5 g ai/ha, read-out: % activity 20 DAT): 25%

Structure (SMILES): Cc1cnc(C2=NC(=O)C(C)(C(C)C)N2)c(C(=O)O)c1 (centres unmarked) [imazapic]
- inhibition at 5 g/ha [5, 12]: 60%
- inhibition at 5 g/ha [6, 13]: 60%
- inhibition at 20 g/ha ([1]; Chenopodium album, 480 h, 20 g ai/ha, read-out: % activity 20 DAT): 40%
- inhibition at 5 g/ha ([2]; Digitaria sanguinalis, 480 h, 5 g ai/ha, read-out: % activity 20 DAT): 50%
- inhibition at 5 g/ha (Galium aparine (GALAP); [14]): 55%
- inhibition at 20 g/ha ([3]; Alopecurus myosuroides, 480 h, 20 g ai/ha, read-out: % activity 20 DAT): 45%

Structure (SMILES): CS(=O)(=O)c1cc(C(F)(F)F)ccc1C(=O)c1cnoc1C1CC1 [isoxaflutole]
- inhibition at 6.25 g/ha ([5]; Abutilon theophrasti, 480 h, 6.25 g ai/ha, read-out: % activity 20 DAT): 55%
- inhibition at 25 g/ha ([7]; Fallopia convolvulus, 480 h, 25 g ai/ha, read-out: % activity 20 DAT): 45%
- inhibition at 6.25 g/ha [1, 9]: 75%
- inhibition at 6.25 g/ha [2, 10]: 15%
- inhibition at 6.25 g/ha [3, 11]: 0%

Structure (SMILES): CCC(CC)Nc1c([N+](=O)[O-])cc(C)c(C)c1[N+](=O)[O-] [pendimethalin]
- inhibition at 100 g/ha [8]: 75%
- inhibition at 200 g/ha ([6]; Lolium multiflorum, 480 h, 200 g ai/ha, read-out: % activity 20 DAT): 30%
- inhibition at 100 g/ha (Setaria viridis (SETVI)): 30%
- inhibition at 400 g/ha ([3]; Alopecurus myosuroides, 480 h, 400 g ai/ha, read-out: % activity 20 DAT): 40%
- inhibition at 100 g/ha ([4]; Matricaria, 480 h, 100 g ai/ha, read-out: % activity 20 DAT): 0%
- inhibition at 800 g/ha ([4]; Matricaria, 480 h, 800 g ai/ha, read-out: % activity 20 DAT): 0%

Structure (SMILES): O=C(Nc1ccc(F)cc1)c1cccc(Oc2cccc(C(F)(F)F)c2)n1 [picolinafen]
- % activity 20 DAT ([5]; 6.25 g ai/ha): 30%
- % activity 20 DAT ([5]; 25 g ai/ha): 60%
- % activity 20 DAT ([7]; 50 g ai/ha): 80%
- % activity 20 DAT ([6]; 12.5 g ai/ha): 10%
- % activity 20 DAT ([1]; 12.5 g ai/ha): 30%
- % activity 20 DAT ([2]; 6.25 g ai/ha): 30%
- % activity 20 DAT ([2]; 12.5 g ai/ha): 45%
- % activity 20 DAT (Galium aparine (GALAP); 6.25 g ai/ha): 30%
- % activity 20 DAT ([3]; 6.25 g ai/ha): 0%
- % activity 20 DAT ([3]; 25 g ai/ha): 0%
- % activity 20 DAT ([4]; 50 g ai/ha): 60%
